Measurements from patent publication US9820483B2, “Microbial composition” (Rohm and Haas Company, priority 2011, dated 2017).

Tests used:
[1] = system: Escherichia coli (E. coli—ATCC #10536); experiment: Automated assessment of efficacy in model surfactant base (2.85% sodium cocoyl glycinate + 1.85% sodium lauroamphoacetate, pH 10), 15 seconds exposure, delta OD450/OD590 in D/E quench; type: cell-based
Protocol: Solutions were prepared such that the concentrations of the surfactant components and test actives were 1.1× the final desired concentration in order to allow for dilution with the bacterial inoculum in the test. The solutions were manually adjusted to pH 10.0 by dropwise addition of sodium hydroxide solution, as measured with a pH meter at ambient temperature.
Tests were conducted using standard microtiter plate assays using an automated liquid handling system. 270 μl of the surfactant test solution was pipetted into each well of the microtitre plate and 30 μl of the bacterial suspension was then added. After exactly 15 seconds of bacterial exposure, a 30 μl volume of bacterial cells was withdrawn and transferred to 270 μl of D/E quench solution. After 5 minutes in the D/E quench, the optical density (OD) was measured for each plate in turn at two specific wavelengths (450 nm and 590 nm). These provide a dual check of antimicrobial activity, as the OD450 reading is specific for the yellow colour of D/E quench when bacterial growth is observed, whereas OD590 is specific for the initial purple colour of the D/E quench which is retained if no bacterial growth is observed. After the time zero OD measurements, plates were then incubated at 37° C. overnight (16 hours) before repeating the OD measurements. Delta OD values were calculated by subtracting […]. Bacterial growth is observed as an increase in OD450 and a decrease in ΔOD590. To identify antibacterially efficacious systems (those preventing appreciable bacterial growth after incubation), the following threshold changes in OD readings have been adopted: if (1). OD450 increases by less than 0.2 absorbance unit on incubation and (2). OD590 decreases by less than 0.35 unit on incubation. Conversely, where OD450 increases by more than 0.2 AU and OD590 decreases by more than 0.35 unit after incubation, corresponding to a colour shift from purple to yellow, the test system allows bacterial growth and is not deemed efficacious. Four replicate measurements in the same plate have been made for each test system. The number of replicate wells showing either bacterial growth or no growth is also readily assessed by eye by following the colour change.
Dose responses for individual components and binary mixtures of actives at a fixed concentration ratio were generated by sequential dilution of liquors with further surfactant solution to obtain a series of endpoints.
In some selected cases, the combinations were also tested at the weight ratio 1:1.
The method used was the same as in the above Table.

[2] = system: E. coli ATCC #10536; experiment: Synergy test: high resolution MBC microtiter plate assay in phosphate buffer containing 35% dipropylene glycol, 15 seconds contact; type: cell-based, Escherichia coli; details: E. coli 10536, complete kill in 15 seconds, phosphate buffer with 35% DPG
Text: One measure of synergy is the industrially accepted method described by Kull, F. C.; Eisman. P. C.; Sylwestrowicz, H. D. and Mayer, R. L., in Applied Microbiology 9:538-541 (1961), using the ratio determined by the formula: Qa/QA÷Qb/QB=Synergy Index (“SI”) wherein: QA=concentration of compound A (first component) in percent, acting alone, which produced an end point (MBC of Compound A). […]=concentration of compound A in percent, in the mixture, which produced an end point. QB=concentration of compound B (second component) in percent, acting alone, which produced an end point (MBC of Compound B). Qb=concentration of compound B in percent, in the mixture, which produced an end point.
When the sum of Qa/QA and Qb/QB is greater than one, antagonism is indicated. […] The lower the SI, the greater is the synergy shown by that particular mixture. The minimum biocidal concentration (MBC) of a microbicide is the lowest concentration tested under a specific set of conditions that provides complete kill of the tested microorganisms.
Synergy tests were conducted using standard microtiter plate assays with phosphate buffer containing 35% dipropylene glycol (DPG). In this method, a wide range of combinations of chemicals was tested by conducting high resolution MBC assays of Component (A) in the presence of various concentrations of Component (B). High resolution MBCs were determined by adding varying amounts of microbicide to one column of a microtiter plate and doing subsequent ten-fold dilutions using an automated liquid handling system to obtain a series of closely spaced endpoints. The MBC plate was inoculated one column at a time with the test microorganism. An aliquot of the inoculated well was transferred at 15 seconds to a plate containing a neutralizing agent (D/E Neutralizing Broth), mixed and held for 5 minutes before being transferred to a growth plate containing trypticase soy broth (TSB). The TSB plate was incubated at 37° C. and read for the presence/absence of growth at 24 hours. The lowest level tested that provided complete kill (as evidenced by no growth in the microtitre plate) of the test organisms in 15 seconds is the minimum biocidal concentration (MBC).
The synergy of the combinations of the present invention was determined against a bacterium, Esherichia coli (E. coli—ATCC #10536), at a concentration of approximately 1×10^8 bacteria per mL. This microorganism is representative of natural contaminants in many consumer and industrial applications.

SMILES: C=C(C)C1CCC(C)C(O)C1 (centres unmarked) [2-methyl-5-(prop-1-en-2-yl)cyclohexanol]
- MBC ([1]; Escherichia coli, ATCC10536, 15 s, in 2.85% sodium cocoyl glycinate + 1.85% sodium lauroamphoacetate solution at pH 10, E. coli, read-out: MBC): 4000 µg/mL
- No. of replicates showing growth (out of 4) ([1]; single active at 0.3% w/v): 4
- Δ OD 590 nm = OD590 (time = 16 hours) − OD590 (time zero), Mean ([1]; single active at 0.3% w/v): 0.66
- ΔOD 450 nm = OD450 (time = 16 hours) − OD450 (time zero), Mean ([1]; single active at 0.3% w/v): −0.44
- No. of replicates showing growth (out of 4) ([1]; single active at 0.5% w/v): 0
- Δ OD 590 nm = OD590 (time = 16 hours) − OD590 (time zero), Mean ([1]; single active at 0.5% w/v): 0.20
- ΔOD 450 nm = OD450 (time = 16 hours) − OD450 (time zero), Mean ([1]; single active at 0.5% w/v): 0.23
- No. of replicates showing growth (out of 4) ([1]; single active at […] w/v): 4
- Δ OD 590 nm = OD590 (time = 16 hours) − OD590 (time zero), Mean ([1]; single active at […] w/v): 0.63
- ΔOD 450 nm = OD450 (time = 16 hours) − OD450 (time zero), Mean ([1]; single active at […] w/v): −0.50
- MBC of the component acting alone (QA or QB; Qa or Qb with the other component at 0) [2]: 0.5 weight %
